Reference: patent publication US20250381184A1, “PHARMACEUTICAL COMBINATION COMPRISING AN ANTI-CD3 ANTIBODY AND A CXCR3 ANTAGONIST” (Idorsia Pharmaceuticals Ltd, priority 2022, published 2025)

Key:
[1] = system: NOD mice; assay: Spontaneous T1D model (NOD mice), blood glucose values; assay type: in vivo; conditions: for % of reduction from Isotype/vehicle group: BGV at week 40 of age; for efficacy on the BGV: therapeutic setting
Excerpt: The efficacy of COMPOUND and of an anti-CD3 monoclonal antibody alone or in combination, or the combination of an anti-CD3 monoclonal antibody and anti-CXCL10 monoclonal antibody can be determined in inducible and spontaneous mouse models of T1D.
The efficacy of COMPOUND and the anti-CD3 monoclonal antibody alone or in combination can be determined in non-obese diabetic (NOD) mice, a spontaneous model for studying T1D (Chen et al. Front Endocrinol 2018, 9:51).
Blood glucose concentrations may be measured using a dynaValeo glucometer from dynamiCARE.
NOD mice usually develop diabetes defined as a blood glucose value (BGV)≥300 mg/dl between 13 and 30 weeks of age.
Groups of 14 to 17 mice are treated in a therapeutic setting, starting from the first measurement of diabetes (BGV≥300 mg/dL) for each mouse (day 1). Mice are randomized based on BGV and age at treatment initiation in five treatment groups: • Group 1: Isotype injected i.v., q.d., from day 1 to day 3+ control food from day 1 until end of the study (Isotype/vehicle) • Group 2: Isotype injected i.v., q.d., from day 1 to day 3+ food loaded with COMPOUND (0.6 mg/g of food) from day 1 until end of the study (Isotype/COMPOUND) • Group 3: Anti-CD3 antibody (30 μg), i.v., q.d., from day 1 to day 3+ control food from day 1 until end of the study (anti-CD3/vehicle) • Group 4: Anti-CD3 antibody (30 μg), i.v., q.d., from day 1 to day 3+ anti-CXCL10 antibody (100 μg), i.p., from day 4 to day 19 (administrations every 2nd/3rd day, 8 administations in total)+control food from day 1 until end of the study (anti-CD3/anti-CXCL10) • Group 5: Anti-CD3 antibody (30 μg), i.v., q.d., from day 1 to day 3+ food loaded with COMPOUND (0.6 mg/g of food) from day 1 until end of the study (anti-CD3/COMPOUND)
BGVs are assessed on a weekly basis and are compared between Isotype/control food-treated mice (group 1) and mice receiving the different treatments. For each mouse the experiment is terminated when the respective mouse reaches 40 weeks of age.
In this sub-analysis, only the mice not severely hyperglycemic at treatment initiation (defined as 300 mg/dL≤BGV≤400 mg/dL) were included in the study results.

[2] = system: CXCR3-expressing CD8+ T cell migration into the BAL; assay: LPS-induced lung inflammation model, BAL CXCR3+CD8+ T cells by flow cytometry; assay type: in vivo, Male DBA/1 mice
[3] = COMPOUND plasma concentration in LPS-induced lung inflammation model; assay type: in vivo, Male DBA/1 mice; conditions: food admix, increasing doses
Description: Groups of 11 to 22 mice are given food mixed with different concentrations of COMPOUND (food admix) starting 3 days prior the LPS challenge and continuing during the whole duration of the experiment. The study consists of seven treatment groups: • 1. Control food admix (no COMPOUND), n=22 • 2. Food admix containing 0.006 mg COMPOUND per g food, n=12 • 3. Food admix containing 0.02 mg COMPOUND per g food, n=12 • 4. Food admix containing 0.06/0.07 mg COMPOUND per g food, n=24 • 5. Food admix containing 0.2 mg COMPOUND per g food, n=12 • 6. Food admix containing 0.6 mg COMPOUND per g food, n=11 • 7. Food admix containing 2 mg COMPOUND per g food, n=11
The experiment is terminated at day 3, 72 hours post LPS challenge. BAL is collected and number of T cells expressing CXCR3 quantified by flow cytometry as described in Pouzol et al., Front Pharmacol 2021,12(2991), doi: 10.3389/fphar.2021.748740. Plasma samples are taken for COMPOUND concentration determination.

[4] = system: patients with severe corticosteroid-refractory ulcerative colitis; conditions: 15 μg/kg/day reduced to 10 μg/kg/day; cited from earlier work

For `Cc1ncn(CC(=O)N2CCN(c3sc(C(F)(F)F)nc3-c3cnc(C(F)(F)F)nc3)C[C@H]2CCO)n1` [COMPOUND, 1-{(R)-2-(2-Hydroxy-ethyl)-4-[2-trifluoromethyl-4-(2-trifluoromethyl-pyrimidin-5-yl)-thiazol-5-yl]-piperazin-1-yl}-2-(3-methyl-[1,2,4]triazol-1-yl)-ethanone], the “% of reduction from Isotype/vehicle group” value ([1]; NOD mice, n = 14-17/group) was 9%, the “% of reduction from Isotype/vehicle group” value ([1]; non-severe diabetic NOD mice, n = 7-11/group) was 13% and the “efficacy on the BGV” value ([1]; NOD mice) was “minimal”. For the same molecule, the “BGV at week 40 of age (mg/dL) (Mean ± SEM)” value ([1]; NOD mice, treatment from BGV≥300 mg/dL, n = 14-17/group) was 540.9 ± 35.4 mg/dL, the “BGV at week 40 of age (mg/dL) (Mean ± SEM)” value ([1]; non-severe diabetic NOD mice (300 mg/dL ≤ BGV ≤ 400 mg/dL at treatment initiation), n = 7-11/group) was 517.3 ± 63.9 mg/dL and the “efficacy on the BGV” value ([1]; non-severe diabetic NOD mice sub-analysis) was “minimal”. For the same molecule, the “mice that showed disease progression” value ([1]; non-severe diabetic NOD mice, end of the study period) was 86%, the “CXCR3+CD8+ T cell migration into the BAL” value ([2]; dose 0.6 mg of COMPOUND/g of food) was “significantly and maximally reduces” and the “BAL CXCR3+CD8+ T cells” value ([2]; preventive setting, food admix 0.006 to 2 mg COMPOUND per g food from 3 days prior LPS, BAL 72 hours post LPS challenge) was “dose-dependent decrease”. For the same molecule, the COMPOUND plasma concentration [3] was “dose-dependent increase”.

B1: visilizumab: humanized IgG2 anti-CD3 antibody with two point mutations in its Fc portion for FcR non-binding properties (antibody, chains of the INN, looked up, V domains shown)
VH: QVQLVQSGAEVKKPGASVKVSCKASGYTFISYTMHWVRQAPGQGLEWMGYINPRSGYTHYNQKLKDKATLTADKSASTAYMELSSLRSEDTAVYYCARSAYYDYDGFAYWGQGTLVTVSS
VL: DIQMTQSPSSLSASVGDRVTITCSASSSVSYMNWYQQKPGKAPKRLIYDTSKLASGVPSRFSGSGSGTDFTLTISSLQPEDFATYYCQQWSSNPPTFGGGTKVEIK
For B1, the “patients demonstrating a clinical response” value [4] is given as 84%.
